Source: article PMC7996082, “The translocator protein ligands as mitochondrial functional modulators for the potential anti-Alzheimer agents” (Journal of Enzyme Inhibition and Medicinal Chemistry, 2021)

Tests used:
[1] = system: HT-22 (mouse hippocampal cells) cells treated with Aβ; assay: JC-1 assay: recovery of mitochondrial membrane potential (ΔΨm) after Aβ; type: cell-based; settings: 5 μM compound, 5 μM Aβ, HT22 cells; 0% = Aβ-induced damaged condition, 100% = normal condition
Description: Thirty thousand HT-22 cells per well were seeded into a clear 96-well plate (FALCON) at 200 µL per well one day prior to assay. 750 mM of JC-1 (Stratagene) in DMSO stock solution was dissolved into phenol red-free Opti-MEM (GIBCO) medium to make final concentration of 7.5 mM JC-1 per well. Medium was removed from the plate, and 100 µL per well of JC-1 was added. The sample plates were incubated for 1 h and 15 min at 37 °C and washed twice with 100 µL per well of PBS. Subsequently, cells were treated with a 25 µL solution of each compound at 10 µM in Opti-MEM and incubated at 37 °C for 10 min followed by addition of a 25 µL of Aβ (American peptide, 1-42) solution at 10 µM. Fluorescence was measured at every one hour for three hours at ex/em 530 nm/580 nm (“red”) and ex/em 485 nm/530 nm (“green”) by using the Flexstation® 3 (Molecular Devices, USA) reader. The ratio of green to red fluorescence was calculated and normalised by taking the percent changes using vehicle control as 100%.
The selected 56 compounds were purchased and tested by in vitro cell-based assays. Four different cell-based assays (JC-1, MTT, ATP production, and cellular ROS assays) were carried out sequentially. First, the JC-1 assay was performed to screen all 56 compounds, VH001–VH056 (Supplementary Table S1). Since mitochondrial membrane depolarisation is one of the distinct signs of mPTP opening, the mitochondrial uptake of a fluorescent JC-1 dye (5,59,6,69-tetrachloro-1,19,3,39-tetraethylbenzimidazolocarbocyanine iodide) was measured to evaluate the effects of each compound on the mitochondrial membrane potential (ΔΨm). HT22 cells, a mouse hippocampal cell line, were treated with 5 µM of Aβ, incubated with each compound at the same concentration of 5 µM, and subsequently treated with JC-1. On the basis of changes in the red/green fluorescence intensity ratio between the cells treated with Aβ and control, the percent recovery of ΔΨm for each compound was calculated and normalised to the ΔΨm of healthy cells as 100%.
Compd Structure ∆Ψm at 5 Compd Structure ∆Ψm at 5 […]
a After the treatment of each compound (5 μM) and Aβ (5 μM) in HT22 cell, the increase of fluorescence ratio (green/red) was measured and normalized by taking the change of the ratio between 0% (Aβ-induced damaged condition) and 100% (normal condition in the absence of Aβ).

CYP2C19 = target: T1, CYP2C19 (Homo sapiens, UniProt P33261); assay: CYP inhibition assay (Vivid CYP450 screening kit); type: in vitro ADME; settings: 10 μM compound
T1 construct: purchased Invitrogen, Madison, WI, USA
Description: (§1) Human CYP450 (CYP1A2, 2D6, 2C9, 2C19, and 3A4) activities were determined by using the Vivid® CYP450 screening kit (Invitrogen, Madison, WI, USA) in a clear 96-well plate. Five positive controls were used as 10 mM solutions in MeCN for five different CYP450 enzymes: CYP1A2 (α-naphthoflavone), CYP2D6 (quinidine), CYP2C9 (sulfaphenazole), CYP2C19 (lansoprazole), and CYP3A4 (ketoconazole). Each sample (test compounds, positive inhibition controls, and solvent controls) was added into each well with the Master Pre-Mix [CYP450 BACULOSOMES® Reagent (recombinant human CYP450 isozyme and rabbit NADPHP450 reductase) and Regeneration System (3.3 mM glucose-6-phosphate and 0.3 U/ml glucose-6-phosphate dehydrogenase in 100 mM potassium phosphate, pH 8.0)]. The mixture was incubated for 5 min at 37 °C, and the Vivid® CYP substrates and 0.1 mM NADP^+ buffer were added to initiate the CYP450 enzyme reaction. The % remaining activities of CYP450 were measured after 20 min by using a fluorescent plate reader (Flexstation® 3, Molecular Devices, USA).

CYP2C9 = target: T2, CYP2C9 (Homo sapiens, UniProt P11712); assay: CYP inhibition assay (Vivid CYP450 screening kit); type: in vitro ADME; settings: 10 μM compound
T2 construct: purchased Invitrogen, Madison, WI, USA
Description: as §1

CYP3A4 = target: T3, CYP3A4 (Homo sapiens, UniProt P08684); assay: CYP inhibition assay (Vivid CYP450 screening kit); type: in vitro ADME; settings: 10 μM compound
T3 construct: purchased Invitrogen, Madison, WI, USA
Description: as §1

CYP1A2 = target: T4, CYP1A2 (Homo sapiens, UniProt P05177); assay: CYP inhibition assay (Vivid CYP450 screening kit); type: in vitro ADME; settings: 10 μM compound
T4 construct: purchased Invitrogen, Madison, WI, USA
T4 sequence (P05177 2-516 limits assumed): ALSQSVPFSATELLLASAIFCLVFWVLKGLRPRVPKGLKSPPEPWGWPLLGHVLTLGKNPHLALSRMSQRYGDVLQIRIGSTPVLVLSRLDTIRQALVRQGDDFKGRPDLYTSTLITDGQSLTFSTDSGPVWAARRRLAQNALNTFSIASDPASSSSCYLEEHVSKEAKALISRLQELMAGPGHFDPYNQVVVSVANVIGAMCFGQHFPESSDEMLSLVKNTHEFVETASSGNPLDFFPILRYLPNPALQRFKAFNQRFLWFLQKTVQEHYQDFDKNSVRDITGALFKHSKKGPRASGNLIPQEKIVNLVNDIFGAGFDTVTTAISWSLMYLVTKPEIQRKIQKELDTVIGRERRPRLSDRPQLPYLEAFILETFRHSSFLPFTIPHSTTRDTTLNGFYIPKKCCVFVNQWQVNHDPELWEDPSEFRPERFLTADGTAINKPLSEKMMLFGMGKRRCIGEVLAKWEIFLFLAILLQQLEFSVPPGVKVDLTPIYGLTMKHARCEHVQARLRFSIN
Description: as §1

CYP2D6 = target: T5, CYP2D6 (Homo sapiens, UniProt P10635); assay: CYP inhibition assay (Vivid CYP450 screening kit); type: in vitro ADME; settings: 10 μM compound
T5 construct: purchased Invitrogen, Madison, WI, USA
Description: as §1

hERG channel = target: T6, hERG channel (Homo sapiens, UniProt Q12809); assay: hERG inhibition assay (automated patch-clamp, CHO-K1 Tet-On hERG cells); type: cell-based; settings: patch-clamp, ± SD
T6 construct: host or cells: CHO-K1 Tet-On hERG cells
Description: For automated patch-clamp NPC-16 Patchliner (Nanion Technologies, München, Germany) recordings, CHO-K1 Tet-On hERG cells (IonGate Biosciences GmbH, Frankfurt, Germany) were plated into 100-mm cell culture dishes. Whole-cell currents were recorded with the intracellular solution containing: 50 mM KCl, 60 mM KF, 10 mM NaCl, 2 mM MgCl2, 20 mM EGTA and 10 mM HEPES (pH 7.2), and with the extracellular solution containing: 140 mM NaCl, 4 mM KCl, 2 mM CaCl2, 1 mM MgCl2, 5 mM Glucose and 10 HEPES (pH 7.4). To assist stable seal formations, the seal enhancer containing: 80 mM NaCl, 3 mM KCl, 35 mM CaCl2, 10 mM MgCl2 and 10 mM HEPES (pH 7.4) was used only at the seal formation step. Prior to the whole-cell recordings, the external seal enhancing solution was exchanged to the extracellular solution described above. hERG channel currents were recorded using the parallel EPC-10 patch-clamp amplifiers (HEKA Elektronik, Lambrecht/Pfalz, Germany), and low-pass filtered (10 kHz) with a 4-pole Bessel filter. Cell suspension and patch solutions were automatically added onto the four recording wells in the microfabricated disposable chip (NPC-16 Chip, Nanion Technologies, München, Germany). To obtain the inhibitory constants, hERG tail currents were evoked by repolarizing steps to −50 mV for 500 ms preceded by a 500-ms depolarisation potential of +20 mV at a holding potential of −80 mV with a 20-s sweep interval. Whole-cell currents were acquired and digitised at 5 kHz using Patchmaster (HEKA Elektronik, Lambrecht/Pfalz, Germany). The extracellular solution was exchanged to the extracellular solution containing each blocker via four pipette tips of NPC-16 Patchliner using a 4-fold volume of solution (40 µL) with a speed of 4 µL/s, and the exchanged blocker solution was applied for 100–200 s to the patch-clamped cells until blocker binding had reached equilibrium by monitoring hERG tail currents. Whole-cell recordings were analysed using the Patchmaster/Fitmaster (HEKA Elektronik, Lambrecht/Pfalz, Germany), IGOR Pro (WaveMetrics Inc., Portland, OR, USA), and the GraphPad Prism 4.0 (GraphPad Software, Inc., La Jolla, CA, USA) software.

[2] = MTT assay: HT22 cell viability with compound alone; type: cell-based, mouse; settings: mouse, HT22 cells; HT22 cell viability after 24 h of treatment with 5 μM compound, no Aβ
Description: To a clear 96-well plate (FALCON), the cultured HT-22 cells were seeded in a number of 5,000 per well 24 h prior to the assay. A solution of each test compound (5 µM, 25 µL) was added to each well. After 24 h of incubation at 37 °C, the cells were treated with a 10 µL of MTT solution (3–(4,5-dimethylthiazol-2-yl)-2,5-diphenyltetrazolium bromide, Sigma-Aldrich), incubated for 2 h at 37 °C, and were treated with 135 µL of MTT solubilising solution (10% Triton-X 100 in isopropanol with 0.1 M HCl) for 2 h at 37 °C. The % values of cell viability were determined by using the optical density (OD) values at 560 nm, and normalised by taking the vehicle control (5 µM of DMSO) as […].

[3] = Liver microsomal stability; type: in vitro ADME; settings: human, liver microsomes, 1 µM compound, 0.5 mg/mL microsomes, 30 min, 37 °C; read-out: Human Liver Microsomal Stability (% remaining after 30 min)
Description: Liver microsomes (human, dog, rat, and mouse; 0.5 mg/mL) were incubated with 1 µM of each test compound in the presence of potassium phosphate buffer (PPB) for 5 min at 37 °C. A solution of the NADPH regeneration system (#44332000, Oriental Yeast Co., Japan) was added to begin metabolic reactions of liver microsomes. The resulting mixtures were incubated for 30 min at 37 °C, and the reaction was terminated by the addition of a cold MeCN solution containing an internal standard (chlorpropamide). The mixture was separated by centrifugation (14,000 rpm for 5 min at 4 °C), and the supernatant was analysed by LC-MS/MS (Shimadzu Nexera XR system and TSQ vantage; Thermo Scientific).

T1 sequence (P33261 whole entry): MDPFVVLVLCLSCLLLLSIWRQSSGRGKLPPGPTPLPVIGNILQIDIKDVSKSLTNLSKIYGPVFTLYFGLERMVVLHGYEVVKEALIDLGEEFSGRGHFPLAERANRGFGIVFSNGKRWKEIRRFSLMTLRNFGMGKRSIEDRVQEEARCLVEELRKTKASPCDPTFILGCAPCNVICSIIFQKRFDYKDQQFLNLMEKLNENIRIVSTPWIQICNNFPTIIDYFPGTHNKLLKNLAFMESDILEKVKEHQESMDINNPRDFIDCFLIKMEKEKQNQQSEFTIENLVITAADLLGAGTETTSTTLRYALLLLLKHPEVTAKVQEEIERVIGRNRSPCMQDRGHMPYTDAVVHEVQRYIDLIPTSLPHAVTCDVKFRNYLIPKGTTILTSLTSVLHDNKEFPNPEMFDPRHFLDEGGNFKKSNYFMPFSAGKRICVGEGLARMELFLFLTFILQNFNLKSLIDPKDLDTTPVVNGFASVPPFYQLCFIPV
T5 sequence (P10635 whole entry): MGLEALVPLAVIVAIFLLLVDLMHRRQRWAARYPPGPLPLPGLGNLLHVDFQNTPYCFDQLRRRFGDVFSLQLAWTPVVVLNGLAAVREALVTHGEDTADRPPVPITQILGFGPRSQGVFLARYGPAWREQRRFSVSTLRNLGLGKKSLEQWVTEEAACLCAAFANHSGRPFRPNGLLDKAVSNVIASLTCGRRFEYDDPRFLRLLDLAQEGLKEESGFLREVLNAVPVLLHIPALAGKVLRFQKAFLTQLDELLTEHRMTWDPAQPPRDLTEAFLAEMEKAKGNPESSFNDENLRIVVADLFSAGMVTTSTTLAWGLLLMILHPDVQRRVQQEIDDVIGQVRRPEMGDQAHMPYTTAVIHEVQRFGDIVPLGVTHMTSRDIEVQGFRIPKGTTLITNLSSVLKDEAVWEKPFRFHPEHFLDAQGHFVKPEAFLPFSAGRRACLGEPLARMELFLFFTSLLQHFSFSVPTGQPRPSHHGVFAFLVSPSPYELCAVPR
T2 sequence (P11712 whole entry): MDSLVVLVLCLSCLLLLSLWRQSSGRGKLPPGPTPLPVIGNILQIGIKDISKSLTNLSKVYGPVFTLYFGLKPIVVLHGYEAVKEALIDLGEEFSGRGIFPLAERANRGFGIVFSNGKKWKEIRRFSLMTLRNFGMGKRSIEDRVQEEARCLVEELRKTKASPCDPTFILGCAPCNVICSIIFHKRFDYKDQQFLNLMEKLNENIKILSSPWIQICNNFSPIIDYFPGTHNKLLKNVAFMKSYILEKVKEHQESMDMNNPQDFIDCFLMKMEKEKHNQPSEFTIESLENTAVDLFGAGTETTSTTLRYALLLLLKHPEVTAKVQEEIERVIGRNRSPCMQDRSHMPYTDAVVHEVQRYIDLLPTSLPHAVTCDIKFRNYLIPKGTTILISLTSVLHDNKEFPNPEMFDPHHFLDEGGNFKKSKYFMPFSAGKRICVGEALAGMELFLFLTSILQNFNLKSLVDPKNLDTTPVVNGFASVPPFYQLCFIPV
T6 sequence (Q12809 whole entry): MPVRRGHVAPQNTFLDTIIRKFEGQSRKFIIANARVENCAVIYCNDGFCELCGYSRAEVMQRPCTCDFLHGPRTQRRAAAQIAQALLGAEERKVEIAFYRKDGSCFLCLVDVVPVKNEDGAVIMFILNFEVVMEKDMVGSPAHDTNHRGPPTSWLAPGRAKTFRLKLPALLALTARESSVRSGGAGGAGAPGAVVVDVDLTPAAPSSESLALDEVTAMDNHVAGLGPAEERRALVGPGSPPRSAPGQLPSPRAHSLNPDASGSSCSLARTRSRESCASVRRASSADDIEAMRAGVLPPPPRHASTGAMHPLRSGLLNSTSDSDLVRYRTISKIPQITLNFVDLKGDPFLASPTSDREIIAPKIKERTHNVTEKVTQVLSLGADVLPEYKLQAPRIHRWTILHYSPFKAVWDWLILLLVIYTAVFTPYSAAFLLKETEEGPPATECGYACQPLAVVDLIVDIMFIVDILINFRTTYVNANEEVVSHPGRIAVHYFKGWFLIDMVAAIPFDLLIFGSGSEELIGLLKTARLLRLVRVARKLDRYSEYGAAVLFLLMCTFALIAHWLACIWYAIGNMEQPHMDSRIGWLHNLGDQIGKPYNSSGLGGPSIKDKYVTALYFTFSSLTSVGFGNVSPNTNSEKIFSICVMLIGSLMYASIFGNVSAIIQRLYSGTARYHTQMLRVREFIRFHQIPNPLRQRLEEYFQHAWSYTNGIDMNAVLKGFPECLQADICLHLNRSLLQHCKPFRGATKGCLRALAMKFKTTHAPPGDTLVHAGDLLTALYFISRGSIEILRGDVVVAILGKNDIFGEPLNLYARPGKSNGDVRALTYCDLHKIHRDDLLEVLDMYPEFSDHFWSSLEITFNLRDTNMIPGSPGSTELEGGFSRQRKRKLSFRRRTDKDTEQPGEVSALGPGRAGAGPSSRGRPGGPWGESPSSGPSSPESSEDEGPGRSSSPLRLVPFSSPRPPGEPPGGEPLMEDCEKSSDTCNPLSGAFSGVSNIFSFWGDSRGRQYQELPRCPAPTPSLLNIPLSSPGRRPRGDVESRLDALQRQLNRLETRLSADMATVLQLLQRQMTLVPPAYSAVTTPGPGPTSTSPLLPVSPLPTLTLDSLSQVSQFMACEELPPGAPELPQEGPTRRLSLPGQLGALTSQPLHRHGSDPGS
T3 sequence (P08684 2-503 limits assumed): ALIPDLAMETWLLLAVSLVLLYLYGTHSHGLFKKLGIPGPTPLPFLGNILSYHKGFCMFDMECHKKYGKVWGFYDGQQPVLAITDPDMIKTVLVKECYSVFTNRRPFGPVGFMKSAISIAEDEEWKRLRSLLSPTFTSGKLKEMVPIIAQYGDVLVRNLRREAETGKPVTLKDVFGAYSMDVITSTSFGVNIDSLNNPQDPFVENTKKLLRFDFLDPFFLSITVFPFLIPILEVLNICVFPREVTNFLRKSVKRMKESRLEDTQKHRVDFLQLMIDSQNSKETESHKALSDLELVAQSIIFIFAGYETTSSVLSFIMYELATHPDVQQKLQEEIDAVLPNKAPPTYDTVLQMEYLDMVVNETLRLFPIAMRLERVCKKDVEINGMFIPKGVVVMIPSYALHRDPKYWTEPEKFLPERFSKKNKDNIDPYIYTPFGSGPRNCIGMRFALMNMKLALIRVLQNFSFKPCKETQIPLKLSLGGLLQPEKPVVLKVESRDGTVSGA

SMILES | Recovery of ΔΨm (%) [1] [%] | CYP450 (% remaining Activity at 10 μM) CYP2C19 (CYP2C19) [%] | CYP450 (% remaining Activity at 10 μM) CYP2C9 (CYP2C9) [%] | CYP450 (% remaining Activity at 10 μM) CYP3A4 (CYP3A4) [%] | CYP450 (% remaining Activity at 10 μM) CYP1A2 (CYP1A2) [%] | CYP450 (% remaining Activity at 10 μM) CYP2D6 (CYP2D6) [%] | IC50 (hERG channel) [µM] | viability at 24 h, 5 µM [2] [%] | remaining at 0.5 h, 1 µM [3] [%]
CCOc1ccc(-c2cc(C(=O)NCc3cccc(OC)c3)c3ccccc3n2)cc1 [VH025] | 12 | – | – | – | – | – | – | – | –
CCN(CCNC(=O)c1cc(-c2cccnc2)nc2ccccc12)c1ccccc1 [VH026] | 49 | – | – | – | – | – | – | – | –
CCOc1ccc(-c2cc(C(=O)NCCCN(CC)CC)c3ccccc3n2)cc1 [VH022] | 36 | – | – | – | – | – | – | – | –
CCc1ccc(-c2cc(C)no2)cc1S(=O)(=O)Nc1cc(OC)cc(OC)c1 [VH021] | 42 | – | – | – | – | – | – | – | –
CCOc1ccc(-n2c(SCC(=O)NCc3ccc(Cl)cc3)nc3sc4c(c3c2=O)CCN(C(C)=O)C4)cc1 [Compound 34] | – | 56.8 | 32.9 | 15.0 | 160.6 | 92.6 | 4.13 ± 1.39 | 97 | 0
CCOc1ccc(-n2c(SCC(=O)N(C)Cc3ccccc3)nc3sc4c(c3c2=O)CCN(C(C)=O)C4)cc1 [Compound 32] | – | 23.3 | 30.9 | 49.3 | 117.3 | 91.7 | 6.53 ± 2.46 | 88 | < 10
CCOc1ccc(-n2c(SCC(=O)Nc3ccc(Cl)cc3)nc3sc4c(c3c2=O)CCN(C(C)=O)C4)cc1 [Compound 35] | – | 72.0 | 64.0 | 70.7 | 120.0 | 113.8 | 30 ± 10.2 | 107 | 0.1
CCOc1ccc(-n2c(SCC(=O)NCc3ccc(Cl)cc3)nc3sc4c(c3c2=O)CCN(C)C4)cc1 [Compound 52] | – | 16.1 | 86.9 | 42.6 | 117.2 | 36.6 | 8.6 ± 0.83 | 80 | 67.6
CCOc1ccc(-n2c(SCC(=O)N(CC)Cc3ccccc3)nc3sc4c(c3c2=O)CCN(C)C4)cc1 [Compound 51] | – | 52.5 | 105.8 | 44.1 | 98.7 | 61.4 | 10 ± 3.6 | 107 | 82
CCOc1ccc(-n2c(SCC(=O)NCc3ccc(C)cc3)nc3sc4c(c3c2=O)CCN(C(C)=O)C4)cc1 [Compound 36] | – | 92.7 | 50.4 | 17.3 | 123.6 | 98.9 | 22 ± 12.7 | 96 | 0
CCOc1ccc(-n2c(SCC(=O)N(CC)Cc3ccccc3)nc3sc4c(c3c2=O)CCN(C(C)=O)C4)cc1 [Compound 33] | – | 35.7 | 32.8 | 56.6 | 150.5 | 82.0 | 2.77 ± 1.18 | 104 | < 10
